Experiments:
[1] = Pharmacokinetics of CD137 bispecifics in SD rats; assay type: in vivo; settings: SD Rat, 2 mg/kg IV, plasma
Protocol: Male SD Rats were dosed with 2 mg/kg of each Bicycle multimer formulated in 25 mM Histidine HCl, 10% sucrose pH 7. Serial bleeding (about 80 μL blood/time point) was performed via submadibular or saphenous vein at each time point. All blood samples were immediately transferred into prechilled microcentrifuge tubes containing 2 μL K2-EDTA (0.5M) as anti-coagulant and placed on wet ice. Blood samples were immediately processed for plasma by centrifugation at approximately 4° C., 3000 g. The precipitant including internal standard was immediately added into the plasma, mixed well and centrifuged at 12,000 rpm, 4° C. for 10 minutes. The supernatant was transferred into pre-labeled polypropylene microcentrifuge tubes, and then quick-frozen over dry ice. The samples were stored at […] or below as needed until analysis. 7.5 μL of the supernatant samples were directly injected for LC-MS/MS analysis using an Orbitrap Q Exactive in positive ion mode to determine the concentrations of Bicycle multimer. Plasma concentration versus time data were analyzed by non-compartmental approaches using the Phoenix WinNonlin 6.3 software program. C0, CI, Vdss, T½, AUC(0-last), AUC(0-inf), MRT(0-last), MRT(0-inf) and graphs of plasma concentration versus time profile were reported.

[2] = tested on: primary patient derived tumour cells; assay: Ex vivo culture of primary patient-derived lung tumours; assay type: cell-based, human; settings: patient-derived lung tumour samples
Protocol: Primary patient derived tumour cells from Discovery Life Sciences (DLS) are thawed gently in 10 mL pre-warmed wash medium spiked fresh with Benzonase. The 3D spheroid kit from Greiner (cat #655840) is used to maintain cells in culture for 2 days. Briefly, tumour cells are counted with trypan blue using a haemocytometer. The cells are centrifuged at 1500 rpm for 5 min to wash, and the pellet is resuspended in 100 μL per 1×10^6 cells N3D nanoshuttle. To make them magnetic, cells are spun down at 1500 rpm for 5 min and resuspended; this process is repeated for a total of 4 times. After the final spin, cells are resuspended in the appropriate amount of fresh Lung DTC medium (DLS) to give 50,000-100,000 cells per well in 100 μL/well. Greiner cell-repellent, 96-well plates (cat #655976) are used for this experiment.
If there are cell clumps or debris visible, sample is applied to a 70-100 μm filter before plating. At least 50,000 cells per sample are reserved for a Day 0 flow cytometry panel, these cells are stained, fixed, and stored at 4° C. for later flow analysis. […] Cytokines are quantified using a custom-built cytokine/chemokine panel (IP-10, Granzyme B, IFNγ, IL-2, IL-6, TNFα, IL-8, MIP-1a, MIP-1b, MCP-1, IL-10, MIG) from R&D systems on a Luminex reader. […] Flow data is analysed with Flowjo software.

[3] = tested on: human PBMC co-cultured with 4T1-D02 (Nectin4+); assay: Human PBMC-4T1 co-culture (cytokine release) assay; assay type: cell-based; settings: anti-CD3 stimulated PBMC, 48 hours
In short: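 Healthy-donor human PBMCs co-cultured 5:1 with murine Nectin-4-overexpressing 4T1-D02 cells, stimulated with 125 ng/ml soluble anti-CD3 (OKT3) plus test compounds. IL-2 and IFNγ in 48 h supernatants measured by HTRF and interpolated from standard curves; three donors, each in duplicate.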

CD137 = CD137 (Homo sapiens, UniProt Q07011); assay: CD137 reporter assay, co-culture with Nectin-4 tumour cells; assay type: cell-based; parameters: host or cells: Jurkat reporter cells;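 further: jurkat reporter cells co-cultured with tumour cells and test article for 6 h, luminescence signal relative to Jurkat plus tumour cells lacking test article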
Sequence of CD137 (Q07011 24-255): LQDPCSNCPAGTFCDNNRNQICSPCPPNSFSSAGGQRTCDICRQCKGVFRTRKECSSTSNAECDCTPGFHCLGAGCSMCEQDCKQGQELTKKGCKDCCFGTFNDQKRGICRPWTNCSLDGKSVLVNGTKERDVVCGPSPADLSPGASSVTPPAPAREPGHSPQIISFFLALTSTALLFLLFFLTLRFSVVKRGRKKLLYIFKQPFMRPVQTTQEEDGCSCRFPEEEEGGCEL
Protocol: Culture medium referred to as R1 media is prepared by adding 1% FBS to RPMI-1640 (component of Promega kit CS196005). Serial dilutions of test articles in R1 are prepared in a sterile 96 well-plate. Use 25 μl per well of test articles or R1 (as a background control) to designated wells in white cell culture plate. Tumour cells* are harvested and resuspended at a concentration of 400,000 cells/mL in R1 media. Twenty five (25) μL/well tumour cells are used in white cell culture plate. Jurkat cells (Promega kit CS196005, 0.5 mL) are thawed in the water bath and then added to 5 ml pre-warmed R1 medium. Twenty five (25) μL/well Jurkat cells are used in white cell culture plate. Incubate the cells and test articles for 6h at 37° C., 5% CO2. At the end of 6 h, add 75 μl/well Bio-Glo™ (Promega) and incubate for 10 min before reading luminescence in a plate reader (Clariostar, BMG). The fold change relative to cells (Jurkat cells+Cell line used in co-culture) is calculated and plotted in GraphPad Prism as log(agonist) vs response to determine EC50 (nM) and Fold Induction over background (Max)

Which results are given for `CCCC[C@@H]1NC(=O)[C@H](Cc2ccc(O)cc2)NC(=O)[C@@H]2CCCN2C(=O)[C@H](CC(=O)O)NC(=O)[C@H](C)NC(=O)[C@H](Cc2ccccc2)NC(=O)[C@@H]2CSCCC(=O)N3CN(CN(C3)C(=O)CCSC[C@@H](C(=O)N[C@@H](C)C(N)=O)NC1=O)C(=O)CCSC[C@H](NC(C)=O)C(=O)N[C@@H](CC(C)(C)C)C(=O)N1CCC[C@H]1C(=O)N[C@@H](CCC(=O)O)C(=O)N[C@H](CCCCNC(=O)CCc1cn(CCOCCOCCOCCOCCOCCC(=O)N[C@H]3CSCCC(=O)N4CN5CN(C4)C(=O)CCSC[C@H](NC(=O)[C@@H](CC(=O)O)NC(=O)[C@H](Cc4cccc6ccccc46)NC(=O)[C@@H]4CCCN4C3=O)C(=O)N[C@@H](CCSC)C(=O)N[C@@H](CCCCNC(=N)N)C(=O)N[C@@H](CC(=O)O)C(=O)N[C@@H](Cc3c[nH]c4ccccc34)C(=O)N[C@@H](CO)C(=O)N[C@@H]([C@@H](C)O)C(=O)N3CCC[C@H]3C(=O)N3C[C@H](O)C[C@H]3C(=O)N[C@@H](Cc3c[nH]c4ccccc34)C(=O)N[C@H](C(N)=O)CSCCC5=O)nn1)C(=O)N1CCC[C@H]1C(=O)N[C@@H](Cc1ccc(O)cc1)C(=O)N2` [BCY10572]?
T½ [1]: 55.6 min; clearance ([1]; male, Sprague-Dawley (SD), read-out: Clp): 15.6 mL/min/kg; Vd ([1]; male, Sprague-Dawley (SD), read-out: Vdss): 0.882 L/kg; change in immune markers (normalized to vehicle) ([2]; 48 h (FIG. 8)): induced Nectin-4 dependent change in several immune markers; change in % CD8+ki67+ T cells ([2]; Day 2 flow (FIG. 8)): induced Nectin-4 dependent change; EC50 ([3]; IFN-γ secretion): 0.25 nM; max IFN-y [3]: 17915 pg/mL; EC50 (CD137): 0.44 nM; Fold Induction over Background (CD137; tumour target Nectin4, co-culture with H1376, 6 h): 55 fold

— patent publication US11453703B2, “Heterotandem bicyclic peptide complexes” (BicycleTX Limited, priority 2018, dated 2022)
